Laboratory results reported in the supplement of paper PMC10307832.

How the values were obtained:
Test in all cases: relative viability (nuclei count vs DMSO), 5 days (fraction); higher = more cells survive
Bleomycin + Lapatinib = compound: CC1=C(N=C(N=C1N)[C@H](CC(=O)N)NC[C@@H](C(=O)N)N)C(=O)N[C@@H]([C@H](C2=CN=CN2)OC3C(C(C(C(O3)CO)O)O)OC4C(C(C(C(O4)CO)O)OC(=O)N)O)C(=O)N[C@H](C)[C@H]([C@H](C)C(=O)N[C@@H]([C@@H](C)O)C(=O)NCCC5=NC(=CS5)C6=NC(=CS6)C(=O)NCCC[S+](C)C)O [Bleomycin] + CS(=O)(=O)CCNCc1ccc(-c2ccc3ncnc(Nc4ccc(OCc5cccc(F)c5)c(Cl)c4)c3c2)o1 [Lapatinib] (partner 2 µM); conditions: main component drawn
Outline: (§1)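 The day after seeding in 1536-well plates, lung cancer cell lines were treated by pin tool with a single drug, or with a fixed anchor-drug dose together with five library-drug doses (not always all listed) in √10 steps. After 5 days, a combined fix-and-stain solution (final 0.05% Triton X-100, 1% formaldehyde, 1 ug/ml Hoechst) was added. Nuclei counted on 4× images gave relative viability as treated counts over vehicle counts, reported as the median of duplicate plates.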

Bleomycin + Pictilisib = compound: CC1=C(N=C(N=C1N)[C@H](CC(=O)N)NC[C@@H](C(=O)N)N)C(=O)N[C@@H]([C@H](C2=CN=CN2)OC3C(C(C(C(O3)CO)O)O)OC4C(C(C(C(O4)CO)O)OC(=O)N)O)C(=O)N[C@H](C)[C@H]([C@H](C)C(=O)N[C@@H]([C@@H](C)O)C(=O)NCCC5=NC(=CS5)C6=NC(=CS6)C(=O)NCCC[S+](C)C)O [Bleomycin] + CS(=O)(=O)N1CCN(Cc2cc3nc(-c4cccc5[nH]ncc45)nc(N4CCOCC4)c3s2)CC1 [Pictilisib] (partner 1 µM); conditions: main component drawn
Outline: as §1

Etoposide + Lapatinib = compound: COc1cc([C@@H]2c3cc4c(cc3[C@@H](O[C@@H]3O[C@@H]5CO[C@@H](C)O[C@H]5[C@H](O)[C@H]3O)[C@H]3COC(=O)[C@H]23)OCO4)cc(OC)c1O [Etoposide] + CS(=O)(=O)CCNCc1ccc(-c2ccc3ncnc(Nc4ccc(OCc5cccc(F)c5)c(Cl)c4)c3c2)o1 [Lapatinib] (partner 2 µM)
Outline: as §1

Etoposide + Alpelisib = compound: COc1cc([C@@H]2c3cc4c(cc3[C@@H](O[C@@H]3O[C@@H]5CO[C@@H](C)O[C@H]5[C@H](O)[C@H]3O)[C@H]3COC(=O)[C@H]23)OCO4)cc(OC)c1O [Etoposide] + Cc1nc(NC(=O)N2CCC[C@H]2C(N)=O)sc1-c1ccnc(C(C)(C)C(F)(F)F)c1 [Alpelisib] (partner 2 µM)
Outline: as §1

Row | Cell Line | relative viability (Bleomycin + Lapatinib; first compound 0.01 µM) | relative viability (Bleomycin + Lapatinib; first compound 0.03162 µM) | relative viability (Bleomycin + Lapatinib; first compound 0.1 µM) | relative viability (Bleomycin + Lapatinib; first compound 0.3162 µM) | relative viability (Bleomycin + Lapatinib; first compound 1 µM) | relative viability (Bleomycin + Pictilisib; first compound 0.01 µM) | relative viability (Bleomycin + Pictilisib; first compound 0.03162 µM) | relative viability (Bleomycin + Pictilisib; first compound 0.1 µM) | relative viability (Bleomycin + Pictilisib; first compound 0.3162 µM) | relative viability (Bleomycin + Pictilisib; first compound 1 µM) | relative viability (Etoposide + Lapatinib; first compound 0.01 µM) | relative viability (Etoposide + Lapatinib; first compound 0.03162 µM) | relative viability (Etoposide + Lapatinib; first compound 0.1 µM) | relative viability (Etoposide + Lapatinib; first compound 0.3162 µM) | relative viability (Etoposide + Lapatinib; first compound 1 µM) | relative viability (Etoposide + Alpelisib; first compound 0.01 µM) | relative viability (Etoposide + Alpelisib; first compound 0.03162 µM) | relative viability (Etoposide + Alpelisib; first compound 0.1 µM) | relative viability (Etoposide + Alpelisib; first compound 0.3162 µM) | relative viability (Etoposide + Alpelisib; first compound 1 µM)
1 | EPLC-272H | 0.586 | 0.812 | 0.369 | 0.205 | 0.109 | 0.288 | 0.352 | 0.265 | 0.137 | 0.161 | 0.862 | 1.05 | 0.497 | 0.807 | 0.408 | 0.965 | 0.934 | 0.606 | 0.931 | 0.539
2 | EBC-1 | 0.217 | 0.215 | 0.199 | 0.206 | 0.196 | 0.359 | 0.376 | 0.346 | 0.272 | 0.283 | 0.2 | 0.245 |  | 0.214 | 0.196 | 0.841 | 0.909 | 0.452 | 0.75 | 0.38
3 | NCI-H1915 | 0.669 | 0.771 | 0.385 | 0.192 | 0.15 | 0.575 | 0.65 | 0.535 | 0.247 | 0.146 | 0.907 | 1.03 | 0.913 | 0.749 | 0.524 | 0.999 | 1.17 | 0.967 | 0.99 | 0.631
4 | NCI-H647 | 0.353 | 0.336 | 0.191 | 0.0899 | 0.0986 | 0.251 | 0.254 | 0.191 | 0.105 | 0.0791 | 1.05 | 0.984 | 0.797 | 0.185 | 0.0906 | 1.19 | 1.22 | 1.02 | 0.429 | 0.125
5 | NCI-H1299 | 0.926 | 0.985 | 0.772 | 0.431 | 0.382 | 0.65 | 0.571 | 0.367 | 0.149 | 0.154 | 0.952 | 0.983 | 1.03 | 0.776 | 0.817 | 1.04 | 1.04 | 1.14 | 1.02 | 0.872
6 | NCI-H23 | 0.419 | 0.314 | 0.268 | 0.197 | 0.165 | 0.262 | 0.348 | 0.263 | 0.169 | 0.153 | 1.11 | 1.04 | 0.608 | 0.324 | 0.215 | 0.578 | 0.654 | 0.358 | 0.364 | 0.236
7 | IA-LM | 0.476 | 0.7 | 0.623 | 0.274 | 0.336 | 0.331 | 0.29 | 0.356 | 0.211 | 0.215 | 0.704 | 0.614 | 0.78 | 0.666 | 0.301 | 0.773 | 0.815 | 0.477 | 0.645 | 0.552
8 | NCI-H650 | 0.537 | 0.748 | 0.686 | 0.318 | 0.21 | 0.628 | 0.764 | 0.728 | 0.483 | 0.25 | 0.657 | 0.951 | 0.409 | 0.418 | 0.207 | 0.945 | 0.977 | 0.949 | 0.5 | 0.24
9 | SK-MES-1 | 0.506 | 0.438 | 0.407 | 0.303 | 0.255 | 0.432 | 0.274 | 0.307 | 0.201 | 0.116 | 0.461 | 0.538 | 0.368 | 0.426 | 0.272 | 0.746 | 0.957 | 0.496 | 0.518 | 0.249
10 | NCI-H2170 | 0.303 | 0.262 | 0.259 | 0.231 | 0.21 | 0.376 | 0.304 | 0.297 | 0.256 | 0.262 | 0.294 | 0.264 |  | 0.292 | 0.23 | 0.65 | 0.849 |  | 0.621 | 0.513
11 | NCI-H2085 | 0.689 | 0.689 | 0.6 | 0.437 | 0.449 | 0.427 | 0.386 | 0.364 | 0.29 | 0.293 | 0.777 | 0.73 | 0.534 | 0.599 | 0.372 | 0.882 | 0.939 | 0.824 | 0.552 | 0.35
12 | NCI-H838 | 0.478 | 0.229 | 0.184 | 0.159 | 0.152 | 0.414 | 0.28 | 0.18 | 0.156 | 0.202 | 0.996 | 1.02 | 0.617 | 0.478 | 0.171 | 0.951 | 1.08 | 0.887 | 0.666 | 0.387
13 | NCI-H460 | 0.296 | 0.29 | 0.0624 | 0.0161 | 0.0213 | 0.307 | 0.285 | 0.244 | 0.0358 | 0.1 | 0.726 | 0.732 | 0.394 | 0.0299 | 0.0144 | 0.479 | 0.355 | 0.272 | 0.0559 | 0.0284
14 | LOU-NH91 | 0.679 | 0.609 | 0.51 | 0.361 | 0.298 | 0.53 | 0.493 | 0.432 | 0.392 | 0.325 | 0.759 | 0.788 | 0.576 | 0.619 | 0.347 | 0.7 | 0.744 | 0.593 | 0.62 | 0.469
15 | NCI-H322M | 0.467 | 0.551 | 0.543 | 0.383 | 0.348 | 0.49 | 0.493 | 0.491 | 0.4 | 0.421 | 0.558 | 0.596 | 0.55 | 0.586 | 0.389 | 0.712 | 0.786 | 0.663 | 0.658 | 0.472
